Measurements from BindingDB's records for doi:10.1016/j.bmcl.2005.10.013 (Universidad De Santiago De Compostela, 2005).

Assays:
[1] = Inhibition of thrombin-induced platelet aggregation in human
[2] = Noradrenaline induced vasorelaxant activity in intact rat aortic rings

SMILES | IC50 [1] [µM] | IC50 [2] [µM]
O=c1oc2c(O)cc(O)cc2cc1-c1cc(O)cc(O)c1 [6,8-dihydroxy-3-(3',5'-dihydroxyphenyl)coumarin] | 285 | 95.5
COc1cc(OC)cc(-c2cc3cc(OC)cc(OC)c3oc2=O)c1 [6,8-dimethoxy-3-(3',5'-dimethoxyphenyl)coumarin] | > 100 | > 100
COc1cc(OC)cc(-c2cc3ccc(OC)cc3oc2=O)c1 [7-methoxy-3-(3',5'-dimethoxyphenyl)coumarin] | > 100 | 52.5
COc1cc(OC)cc(-c2cc3cc(OC)ccc3oc2=O)c1 [6-methoxy-3-(3',5'-dimethoxyphenyl)coumarin] | > 25 | 42.6

Now those with a lower IC50 [2], led by results:

IC50 [1] [µM] | IC50 [2] [µM] | SMILES
105 | 39.8 | COc1cc(OC)cc(-c2cc3ccc(O)cc3oc2=O)c1 [3-(3,5-dimethoxyphenyl)-7-hydroxy-2H-chromen-2-one]
62.3 | 38.9 | O=c1oc2cc(O)ccc2cc1-c1cc(O)cc(O)c1 [7-hydroxy-3-(3',5'-dihydroxyphenyl)coumarin]
– | 19.9 | Oc1ccc(/C=C/c2cc(O)cc(O)c2)cc1 [5-[(E)-2-(4-hydroxyphenyl)ethenyl]benzene-1,3-diol]
30.1 | 10.6 | O=c1oc2ccc(O)cc2cc1-c1cc(O)cc(O)c1 [6-hydroxy-3-(3',5'-dihydroxyphenyl)coumarin]
